Test results taken from patent US8492589B2, “Alkynyl phenyl derivative compounds for treating ophthalmic diseases and disorders” (Acucela Inc., priority 2007, dated 2013).
Read-outs that look alike come from different tables or passages of the source.

Biological target: T1, isomerase (Mus musculus, UniProt Q91ZQ5)
T1 construct: The recovery of 11-cis-retinal after bleaching can be used to estimate the activity of isomerase in vivo; from tissue; host or cells: eyes of living CD-1 and Balb/c male mice
T1 sequence (Q91ZQ5 1-533): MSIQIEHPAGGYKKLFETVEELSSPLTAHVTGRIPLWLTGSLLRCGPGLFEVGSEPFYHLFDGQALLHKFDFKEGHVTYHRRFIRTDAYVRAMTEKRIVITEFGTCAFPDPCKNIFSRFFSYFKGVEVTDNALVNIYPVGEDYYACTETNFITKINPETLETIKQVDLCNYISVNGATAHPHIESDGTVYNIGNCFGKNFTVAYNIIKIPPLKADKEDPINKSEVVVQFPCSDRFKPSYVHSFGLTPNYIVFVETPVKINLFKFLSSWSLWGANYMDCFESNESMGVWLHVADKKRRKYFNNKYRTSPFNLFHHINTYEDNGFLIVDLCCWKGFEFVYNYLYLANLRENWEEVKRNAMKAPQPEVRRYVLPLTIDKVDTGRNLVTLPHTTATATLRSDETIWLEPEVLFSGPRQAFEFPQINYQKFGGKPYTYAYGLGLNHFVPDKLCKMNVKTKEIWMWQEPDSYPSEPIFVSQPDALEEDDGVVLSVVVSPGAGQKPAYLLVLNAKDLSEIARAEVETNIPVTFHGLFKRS
Assay: In vivo murine isomerase assay (recovery of 11-cis-retinal after photobleaching)
Set-up: species or system mice
Conditions: for inhibition in vivo at 1 mg/kg / inhibition in vivo at 5 mg/kg / ED50: mouse; for inhibition in vivo at 1 mg/kg / inhibition in vivo at 5 mg/kg: read-out: % Inibition; for ED50: po, read-out: ED50 (dose of compound that gives 50% inhibition of 11-cis retinal (oxime) recovery), estimated, male Balb/c mice, HCl salts dosed orally in mg/kg; for ED50 / inhibition of isomerase activity in vivo (figure legend): photobleached 4 hours after dosing; for inhibition of isomerase activity in vivo (figure legend): oral dose response, Balb/c mice
Description: The capability of alkynyl phenyl-linked amine derivatives to inhibit isomerase is determined by an in vivo murine isomerase assay. Brief exposure of the eye to intense light (“photobleaching” of the visual pigment or simply “bleaching”) is known to photo-isomerize almost all 11-cis-retinal in the retina. The recovery of 11-cis-retinal after bleaching can be used to estimate the activity of isomerase in vivo. Delayed recovery, as represented by lower 11-cis-retinal oxime levels, indicates inhibition of isomerization reaction. Procedures were performed essentially as described by Golczak et al., Proc. Natl. Acad. Sci. […] See also Deigner et al., Science, 244: 968-71 (1989); […] Parish, et al., Proc. Natl. Acad. Sci. USA, 14609-13 (1998); […] Six-week old dark-adapted CD-1 (albino) male mice were orally gavaged with compound (0.03-3 mg/kg) dissolved in 100 μl corn oil containing 10% ethanol (five animals per group). […] After 2-24 hours in the dark, the mice were exposed to photobleaching of 5,000 lux of white light for 10 minutes. The mice were allowed to recover 2 hours in the dark. The animals were then sacrificed by carbon dioxide inhalation. Retinoids were extracted from the eye and the regeneration of 11-cis-retinal was assessed at various time intervals. All steps were performed in darkness with minimal redlight illumination (low light darkroom lights and […] flashlights for spot illumination as needed) (see, e.g., Maeda et al., J. Neurochem 85:944-956, 2003; Van Hooser et al., J Biol Chem 277:19173-82, 2002). After the mice were sacrificed, the eyes were immediately removed and placed in liquid nitrogen for storage. The eyes were placed in 500 μL of bis-tris propane buffer (10 mM, pH 7.3) and 20 μL of 0.8M hydroxile amine (pH-7.3). The eyes were cut up into small pieces with small iris scissors and then thoroughly homogenized at 30000 rpm with a mechanical homogenizer (Polytron PT 1300 D) in the tube until no visible tissue remained. 500 μL of methanol and 500 μL of heptane were added to each tube. The tubes were attached to a vortexer so that the contents were mixed thoroughly for 15 minutes in room temperature. […] The samples were analyzed on an Agilent 1100 HPLC system with normal phase column: SILICA (Beckman Coutlier, dp 5 μm, […]). The running method has a flow rate of 1.5 ml/min; solvent components are 15% solvent 1 (1% isopropanol in ethyl acetate), and 85% solvent 2 (100% hexanes). Loading volume for each sample is 100 μl; detection wavelength is 360 nm. The area under the curve for 11-cis retinal oxime was calculated by Agilent Chemstation software and was recorded manually. Data processing was performed using Prizm software. Positive control mice (no compound administered) were sacrificed fully dark-adapted and the eye retinoids analyzed. Light (bleached) control mice (no compound administered) were sacrificed and retinoids isolated and analyzed immediately after light treatment. […] Animals that received Compound 19 HCl were orally dosed with 0.01 and 1 mg/kg of compound in sterile water as solution, and photobleached 4 hours after dosing. Recovery and retinoid analysis were performed as described above. Dark control mice were vehicle-only treated, sacrificed fully dark adapted without light treatment, and analyzed. […] A time course study was performed to determine the isomerase inhibitory activity of Compounds 2, 18 and 19. Male Balb/c mice (4/group) received 3 mg Compound 2-HCl, Compound 18-HCl or Compound 19-HCl (in water) per kg bodyweight orally, by gavage. The animals were then “photo-bleached” (5000 Lux white light for 10 minutes) at 2, 4, 8, 16 and 24 hours after dosing, and returned to darkness to allow recovery of the 11-cis-retinal content of the eyes. Mice were sacrificed 2 hours after bleaching, eyes were enucleated, and retinoid content was analyzed by HPLC. A single dose study of the compound of Example 36 (Compound 36) was performed, at 1 mg/kg and 5 mg/kg oral dosing, 2, 4, 6, and 24 hours post bleaching. […]

Row | inhibition in vivo at 1 mg/kg (4 h) [%] | inhibition in vivo at 1 mg/kg (24 h) [%] | inhibition in vivo at 5 mg/kg (4 h) [%] | inhibition in vivo at 5 mg/kg (24 h) [%] | ED50 [mg/kg] | inhibition of isomerase activity in vivo (figure legend) | SMILES
1 | 16 | 7 | – | – | – | – | NCCOc1cccc(C#CC2(O)CCSCC2)c1 [Example 55, 4-((3-(2-Aminoethoxy)Phenyl)Ethynyl)Tetrahydro-2H-Thiopyran-4-ol]
2 | 0 | 0 | 27 | 0 | – | – | NCCCc1cccc(C#CC2(O)CCCC2)c1 [Example 24, 1-((3-(3-Aminopropyl)phenyl)ethynyl)cyclopentanol]
3 | 0 | 0 | – | – | – | – | NCCCc1cccc(C#Cc2ccccn2)c1 [Example 61, 3-(3-(Pyridin-2-ylethynyl)phenyl)propan-1-amine]
4 | 7 | 6 | 65 | 0 | – | – | CCC(O)(C#Cc1cccc(OCCN)c1)CC [Example 27, 1-(3-(2-Aminoethoxy)phenyl)-3-ethylpent-1-yn-3-ol]
5 | 23 | 9 | 73 | 0 | – | – | NCCCc1cccc(C#Cc2ccccc2)c1 [Example 37, 3-(3-(Phenylethynyl)phenyl)propan-1-amine]
6 | – | – | 49 | 0 | – | – | CC(C)(O)C#Cc1cccc(CCCN)c1 [Example 7, 4-(3-(3-Aminopropyl)phenyl)-2-methylbut-3-yn-2-ol]
7 | 1 | 0 | – | – | – | – | CC(C)(C)C(C)(O)C#Cc1cccc(CCCN)c1 (centres unmarked) [Example 25, 1-(3-(3-Aminopropyl)phenyl)-3,4,4-trimethylpent-1-yn-3-ol]
8 | 18 | 0 | – | – | – | – | NCCCc1cccc(C#C[C@@H](O)c2ccccc2)c1 [Example 26, (S)-3-(3-(3-Aminopropyl)phenyl)-1-phenylprop-2-yn-1-ol]
9 | 0 | 0 | – | – | – | – | NCCOc1cccc(C#Cc2cccnc2)c1 [Example 62, 2-(3-(Pyridin-3-ylethynyl)phenoxy)ethanamine]
10 | – | – | – | – | 0.38 | concentration-dependent inhibition | CCCC(O)(C#Cc1cccc([C@@H](O)CCN)c1)CCC [Compound 101, (S)-4-((3-(3-Amino-1-Hydroxypropyl)Phenyl)Ethynyl)Heptan-4-ol]
11 | 0 | 0 | 8 | 1 | – | – | NCCCc1cccc(C#CC2CCCC2)c1 [Example 38, 3-(3-(Cyclopentylethynyl)phenyl)propan-1-amine]
12 | 10 | 9 | – | – | – | – | CC(=O)NCCCc1cccc(C#CC2(O)CCCCC2)c1 [Example 60, N-(3-(3-((1-Hydroxycyclohexyl)Ethynyl)Phenyl)Propyl)Acetamide]
13 | 13 | 31 | – | – | – | – | NCCC(O)c1cccc(C#CCCCCO)c1 (centres unmarked) [Example 50, 6-(3-(3-Amino-1-hydroxypropyl)phenyl)hex-5-yn-1-ol]
14 | 0 | 0 | 17 | 0 | – | – | NCCCc1cccc(C#CC2(O)CCCCC2)c1 [Example 11, 1-((3-(3-Aminopropyl)phenyl)ethynyl)cyclohexanol]
15 | 72 | 2 | – | – | – | – | NCCC(O)c1cccc(C#CC2CCCCC2)c1 (centres unmarked) [Example 52, 3-Amino-1-(3-(Cyclohexylethynyl)Phenyl)Propan-1-ol]
16 | – | – | – | – | 1.73 | concentration-dependent inhibition | CCCC(O)(C#Cc1cccc(OCCN)c1)CCC [Example 18, 4-((3-(2-Aminoethoxy)phenyl)ethynyl)heptan-4-ol]
17 | 22 | 0 | – | – | – | – | NCCOc1cccc(C#CC2CCCCC2)c1 [Example 80, 2-(3-(Cyclohexylethynyl)phenoxy)ethanamine]
